Data published in paper PMC6718478, “A Comprehensive Antimicrobial Activity Evaluation of the Recombinant Microcin J25 Against the Foodborne Pathogens Salmonella and E. coli O157:H7 by Using a Matrix of Conditions” (Frontiers in Microbiology, 2019).
Positions of bridges follow the written chain, without caps; N, C: chain ends. Residues, ends and D or L forms follow the SMILES beside them.

Assays:
S. Pullorum [1] = test: Antimicrobial activity in different growth phases, viable plate counting; format: cell-based, Salmonella Pullorum; conditions: LB, n = 6; for time to reduction to undetectable levels: early- or late-log phase cells, plate counts at 0, 12, 24, 48 h; for time to reduction to non-detectable levels: stationary phase cells, plate counts
Description: The effect of growth phase on the anti-Salmonella and -E. coli O157:H7 activity of recombinant MccJ25 was determined by the viable plate counting method, as described previously ([Ma et al., 2016]; [Fan et al., 2017]), with minor modifications. Cultures of the strains in the early-log phase, late-log phase and stationary phase were washed, concentrated and diluted with sterilized phosphate-buffered saline (PBS) to approximately 10^7 CFU/mL. Then, 1 mL was incubated individually in 9 mL of PBS to reach an approximate 10^6 CFU/mL final concentration. The bacterial cells were then inoculated into 5 mL of LB containing different concentrations of MccJ25 (0, 1 × MIC, 2 × MIC, and 4 × MIC). At 0, 12, 24, and 48 h post incubation, the cultures (0.1 mL) were serially diluted with PBS and plated on LB and TSA agar. The plates were incubated at 37°C overnight to count colony. Colonies were counted to determine CFU/mL. The experiment was conducted with two replicates in three independent trials.

S. Pullorum [2] = test: SEM of cell membrane morphology; format: cell-based, Salmonella Pullorum; conditions: 1 or 4 × MIC for 1 h at 37°C; ~2 × 10^6 cells
Description: To assess the alteration of S. Pullorum cell membrane morphology and ultrastructure, SEM and TEM were performed as described previously, with minor modifications ([Wang et al., 2017]; [Meng et al., 2019]). For SEM sample preparation, approximately 2 × 10^6 S. Pullorum cells were incubated at 37°C for 1 h with the recombinant MccJ25 at 1× and 4 × MIC levels. The control was performed without the recombinant MccJ25. After incubation, the cells were harvested, mixed and centrifuged at 8,000 × g for 3 min. The bacterial pellets were washed three times in PBS and centrifuged at 3,000 × g for 10 min. The bacterial cells were resuspended in 500 μL of PBS and supplemented with 2.5% fresh glutaraldehyde at 4°C overnight. Thereafter, the bacterial pellets were postfixed in 1% osmium tetroxide, dehydrated, and coated with gold-palladium. They were observed by SEM (EVO MA10 XVP, Carl Zeiss).

SMILES: CC[C@H](C)[C@H](NC(=O)CNC(=O)[C@@H](NC(=O)[C@H](Cc1ccccc1)NC(=O)[C@H](Cc1ccc(O)cc1)NC(=O)[C@@H]1CCC(=O)NCC(=O)NCC(=O)N[C@@H](C)C(=O)NCC(=O)N[C@@H](Cc2c[nH]cn2)C(=O)N[C@@H](C(C)C)C(=O)N2CCC[C@H]2C(=O)N1)C(C)C)C(=O)NCC(=O)N[C@H](C(=O)N1CCC[C@H]1C(=O)N[C@H](C(=O)N[C@@H](CO)C(=O)N[C@@H](Cc1ccccc1)C(=O)N[C@@H](Cc1ccc(O)cc1)C(=O)NCC(=O)O)[C@@H](C)CC)[C@@H](C)O [recombinant MccJ25, microcin J25] (GGAGHVPEYFVGIGTPISFYG-OH; lactam N-8 (inferred); C-terminus assumed)
- time to reduction to undetectable levels (S. Pullorum [1]; 8 μg/mL): ≤ 24 h
- time to reduction to undetectable levels (S. Pullorum [1]; 4 × MIC): ≤ 12 h
- time to reduction to non-detectable levels (S. Pullorum [1]; 8 μg/mL): ≤ 48 h
- time to reduction to non-detectable levels (S. Pullorum [1]; 16 μg/mL): ≤ 24 h
- cell membrane morphology by SEM (S. Pullorum [2]): minimal membrane roughening, enlargement, and some filiferous adhesions in a small amount of cells
